Experimental data from US20120178695A1, “METHODS OF TREATING NEUROPATHIC PAIN” (priority 2009, published 2012).
Peptide text beside a SMILES is read from it.

Tests used:
[1] = blood-brain barrier crossing
[2] = test system: rat model of peripheral neuropathy; assay: rat model of peripheral neuropathy, mechanical allodynia (Example 5); format: in vivo; conditions: for group mean withdrawal threshold, nerve-injured paw: approximately 60 min post-dose
Method: FIG. 2 depicts the result of groups of eight male rats subjected to chronic constriction injury to the right hind limb. Following development of peripheral neuropathy, rats were administered GLYX-13, i.v. at 5, 10 or 20 mg/kg on days 12 and 13 post-operative (PO). Rats were tested for mechanical allodynia at 15 and 60 minutes post-dose on day 13 PO. The data represent mechanical allodynia readings at 15 minutes post-dose.
The ability of GLYX-13 to attenuate neuropathic pain was assessed in a rat model of peripheral neuropathy. In this study, four groups of eight male rats were subjected to surgically-induced peripheral neuropathy. Peripheral neuropathy was induced in the right hind limb of male rats by loose ligation of the right sciatic nerve according to the method of Bennett and Xie (Bennett and Xie, 1988). After 8-10 days, a peripheral neuropathy had developed in the right hind limbs as determined by sensitivity to both mechanical allodynia and thermal hyperalgesia. This pilot study consisted of four groups of eight male rats. Days 12-13 post surgery, vehicle (0.9% saline) or GLYX-13 at 5, 10, and 20 mg/kg were administered, and rats were tested for sensitivity to both the thermal stimulus and mechanical allodynia. […] The results for GLYX-13 15 minutes post dose in this rodent neuropathy model are shown FIG. 2.

[3] = test system: Randall-Selitto paw pressure model; assay: Randall-Selitto paw pressure model in rats; format: in vivo, rat
Method: The purpose of this study was to assess the potential effect of GLYX-13 upon the pain threshold in rats using the Randall-Selitto paw pressure model. Groups of 10 male rats (20 for saline vehicle control) were injected with a 20% suspension of yeast in the right hind paw and two hours later, each rat was intravenously administered either saline or GLYX-13 at 1, 5, or 10 mg/kg. The response to mechanical pain stimulus was determined for both the inflamed and non-inflamed paw using an analgesia meter. The amount of force required to elicit paw withdrawal was measured for each rat.

[4] = test system: acetic-acid induced writhing model in mice; assay: acetic-acid induced writhing model in mice; format: in vivo, mouse; conditions: male mice; 1, 5, and 10 mg/kg i.v., 5 min before i.p. 0.5% acetic acid
Method: GLYX-13 was tested for antinociceptive activity in an acetic-acid induced writhing model in mice. Groups of 10 male mice were dosed i.v. with either saline or GLYX-13 at 1, 5, or 10 mg/kg. Five minutes later, each mouse was injected i.p. with a solution of 0.5% acetic acid in 0.9% saline and observed for writhing behavior for five minutes. The total number of writhes for each mouse was recorded and the mean number of writhes was compared between the control and GLYX-13 treated groups.

[5] = test system: radiant heat tail flick response; assay: radiant heat tail flick study in rats; format: in vivo, rat; conditions: male rats; 1, 5, and 10 mg/kg i.v., five minutes after administration
Method: The ability of GLYX-13 to block the radiant heat tail flick response was determined in male rats. Groups of 10 male rats were administered either saline or GLYX-13 at 1, 5, or 10 mg/kg via i.v. injection, and five minutes following administration, the tail of each rat was exposed to a radiant heat stimulus. The time to elicit a characteristic tail flick was determined for each rat and the mean response time was determined for each group.

[6] = test system: rodent peripheral neuropathy model; assay: second peripheral neuropathy study, mechanical allodynia (Example 6); format: in vivo, rat; conditions: 5 mg/kg i.v.
Method: FIG. 3 depicts the results of groups of 12 male rats subjected to chronic constriction injury to the right hind limb. Following development of peripheral neuropathy, rats were 5 administered GLYX-13, i.v. at 5, 10 or 20 mg/kg on days 12 and 13 post-operative (PO). Rats were tested for mechanical allodynia at 15 and 60 minutes post-dose on day 13 PO. The data represent mechanical allodynia readings at 60 minutes post-dose.
A second peripheral neuropathy study was performed with GLYX-13 in male Sprague- Dawley rats. A peripheral mononeuropathy was induced in the right hind limb and rats were tested for development of mechanical allodynia. Rats that had positively developed neuropathy were administered vehicle (0.9% saline) or GLYX-13 i.v. at doses of 5, 10, or 20 mg/kg on days 12 and 13 PO. Testing for mechanical allodynia was performed at 15 and 60 minutes post-dose. […] In this rodent peripheral neuropathy model, i.v. administration of5 mg/kg GLYX-13 to male rats caused a significant reduction in the sensitivity of the nerve injured hind paw to mechanical allodynia at both 15 and 60 minutes post dose. There was no evidence of any systemic or contralateral effects in this study.

[7] = ataxia on rotor-rod apparatus; format: in vivo; conditions: 30 min after 5, 50, or 500 mg/kg intravenous administration
[8] = test system: intraplantar formalin pain, late phase; assay: formalin test 8 days after a single dose (Example 7); format: in vivo, rat; conditions: 1 dose 3 mg/kg i.v. 8 days before intraplantar formalin (1.5%)
Method: FIG. 4 depicts mean±SEM percent analgesia in the late phase (30-50 min) in 3 month old Sprague-Dawley rats pretreated with GLYX-13 (3 mg/kg i.v.), ketamine (10 mg/kg i.v.) or saline vehicle injection (1 mg/ml i.v. tail vein) in freely behaving rats 8 days before left rear paw intraplantar injections (50 μl) of formalin (1.5%). Analgesia is % reduction in licking time, number of flinches, or total pain score (favoring+2×foot up+3×licking time). […] N=10-11 per group. * P<0.05 Fisher PLSD post hoc drug vs. all other groups.
Freely behaving 3 month old Sprague Dawley rats were pretreated with GLYX -13 (3 mg/kg i.v.), ketamine (10 mg/kg i.v.) or saline vehicle injection (1 mg/ml i.v. tail vein) 8 days before left rear paw intraplantar injections (50 μl) of formalin (1.5%).

[9] = test system: chronic constriction nerve injury model of neuropathic pain; assay: chronic constriction nerve injury model of neuropathic pain (Example 1); format: in vivo, rat; conditions: 5 mg/kg intravenously; 15 and 60 minutes after dosing
Method: Next, GLYX-13 was evaluated in the chronic constriction nerve injury model of neuropathic pain; 5 mg/kg GLYX-13. Male Sprague-Dawley rats (200-225 g) were anesthetized with sodium pentobarbitone (6 mg/kg, intraperitoneally) and supplemented as necessary with isoflurane (1-3% in oxygen). Under asceptic conditions, the right sciatic nerve was exposed by blunt dissection at the mid thigh level and 1 cm freed of adhering connective tissue. Four chromic catgut (4.0) ligatures were tied to lightly constrict the nerve at 1 mm intervals. The overlying muscle and skin were sutured and, upon recovery from anesthesia, the rats returned to cages of soft padded bedding and to cages with sawdust bedding after 24 h. At days 5, 7, 9, and 11 post recovery, mechanical […] was assessed with Von Frey filaments (calibration numbers, 3.61-6.10) applied to the plantar surface of the hind paw from below. The filaments were evaluated in ascending order with the threshold for both the ipsilateral and contralateral paws being evaluated. The withdrawal threshold was defined as the lowest force of two or more consecutive Von Frey filaments to elicit a withdrawal reflex. […]
The antinociceptive actions of vehicle or GLYX-13 (5 mg/kg) were evaluated at 15 and 60 minutes after dosing. […]

[10] = test system: rat formalin model of tonic pain; assay: rat formalin model of tonic pain; format: in vivo; conditions: for antinociceptive efficacy (percentage analgesia, late phase response): subcutaneous before formalin, second phase 10-40 min after formalin
Method: FIG. 1 depicts the antinociceptive actions of GLYX-13 and gabapentin in the rat formalin model of tonic pain. Percentage analgesia is the percentage reduction (on the basis of the area under the curve for vehicle+formalin) in flinches in the late phase response (10-40 min) after intraplantar formalin injection ([…] of 5% formalin) compared with control values arbitrarily set at 100%. Drugs were administered subcutaneously, 15 min before formalin. N=8-10 per group. Mean±SEM.
Antinociceptive actions of GLYX-13 were conducted in a rat formalin assay. Male Sprague-Dawley rats (125-170 g) were manually restrained for a subcutaneous injection of 1.5% formalin ([…] with a 26 ga needle) into the lateral footpad on the plantar surface of the left hind paw. After formalin injections, rats were placed in individual clear plastic cylinders of 30 cm diameter. Drug effects on the second phase of the pain response were monitored with observations conducted over the period between 10 and 40 min after formalin injection. Each group was composed of 10 animals. Vehicle, GLYX-13, or gabapentin was administered subcutaneously at the nape of the neck 10 min before the formalin injection. The time spent licking or elevating the injected limb was quantitated over this […] observation period.

With `C[C@@H](O)[C@H](N)C(=O)N1CCC[C@H]1C(=O)N1CCC[C@H]1C(=O)N[C@H](C(N)=O)[C@@H](C)O` [GLYX-13, L-threonyl-L-prolyl-L-prolyl-L-threonine amide] (H-TPPT-NH2) the “crossing of the blood-brain barrier” value [1] was “readily crosses the blood-brain barrier in an active form”, the “withdrawal threshold, nerve-injured paw” value ([2]; 10 mg/kg i.v., 15 minutes post dose) was 5.98 ± 2.25 g and the “withdrawal threshold, nerve-injured paw” value ([2]; 10 mg/kg i.v., 60 minutes post dose) was 7.26 ± 2.19 g. The “responses of the uninjured (contralateral) hind paw” value ([2]; 5, 10, and 20 mg/kg, any of the time points tested) was “No marked changes”, the “withdrawal threshold, nerve-injured paw” value ([2]; doses of 5 and 20 mg/kg) was “small but distinct increases in withdrawal threshold” and the “group mean withdrawal threshold, nerve-injured paw” value ([2]; high dose (20 mg/kg i.v.)) was 2.08 ± 1.21 g. The “group mean withdrawal threshold, nerve-injured paw” value ([2]; low dose group (5 mg/kg i.v.)) was 5.04 ± 3.09 g, the “withdrawal threshold in the nerve injured hind paw to mechanical allodynia” value ([2]; male rats, 5, 10, and 20 mg/kg) was “marked increase in the withdrawal threshold” and the “pain threshold (force to elicit paw withdrawal)” value ([3]; male rats, yeast-inflamed paw, 1, 5, or 10 mg/kg i.v.) was “no significant effect on the pain threshold”. The “pain threshold (force to elicit paw withdrawal)” value ([3]; rats dosed with 5 and 10 mg/kg i.v.) was “Slight, but not statistically significant, increases in the pain threshold”, the “acetic acid induced writhing behavior” value [4] was “did not block acetic acid induced writhing behavior” and the “response time to a radiant heat stimulus (tail flick)” value [5] was “did not result in a change in the response time”. For the same compound, the contralateral effects [6] was “no evidence of any contralateral effects”, the “sensitivity of the nerve-injured paw to mechanical stimuli (Von Frey filaments)” value ([6]; free-base, approximately 15 and 60 min post dose) was “statistically significant reduction in the sensitivity” and the “ataxia, rotor-rod apparatus” value [7] was “not found to induce ataxia”. For the same compound, the “analgesia in the late phase (30-50 min) of the formalin test” value [8] was “increased analgesia 8 days after administration”, the “antinociceptive action (mechanical allodynia)” value [9] was “antinociceptive at both time points” and the ataxia [9] was “no evidence of ataxia”. For the same compound, the ataxia ([10]; rat, in vivo, sc) was “not ataxic at any of the doses examined” and the “antinociceptive efficacy (percentage analgesia, late phase response)” value [10] was “dose-dependent efficacy”.
For `NCC1(CC(=O)O)CCCCC1` [gabapentin, reference compound], the “antinociceptive efficacy (percentage analgesia, late phase response)” value [10] was “dose-dependent efficacy” and the ataxia ([10]; subcutaneous, doses of the formalin study (data not shown)) was “ataxic at the highest dose”.
